According to the NIST ThermoML archive (doi:10.1016/j.jct.2008.12.010):

Assay: xn = mol fraction of the nth substance listed
Conditions: Liquid; for speed of sound: Linear variable-path acoustic interferometer; for mass density: Vibrating tube method

CCOC(=O)OCC [diethyl carbonate] + Cc1ccc(C)cc1
Conditions	mass density [kg/m3]	speed of sound [m/s]
298.15 K, x1 = 0.05081	862.33	–
298.15 K, x1 = 0.1564	874.2	–
298.15 K, x1 = 0.2581	885.6	–
298.15 K, x1 = 0.3052	890.87	–
298.15 K, x1 = 0.4021	901.73	–
298.15 K, x1 = 0.4941	912.05	1239.7
298.15 K, x1 = 0.5014	912.87	1238.7
298.15 K, x1 = 0.5966	923.58	1226
298.15 K, x1 = 0.6896	934.06	1213.8
298.15 K, x1 = 0.7459	940.42	1206.7
298.15 K, x1 = 0.8987	957.7	1188.4
298.15 K, x1 = 0.9492	963.41	1182.6
303.15 K, x1 = 0.05001	857.79	1280.6
303.15 K, x1 = 0.09883	863.2	1274
303.15 K, x1 = 0.1971	874.11	1260.3
303.15 K, x1 = 0.3068	886.26	1245
303.15 K, x1 = 0.3908	895.57	1233.2
303.15 K, x1 = 0.499	907.57	1218.4
303.15 K, x1 = 0.5482	913.03	1211.7
303.15 K, x1 = 0.6011	918.91	1204.7
303.15 K, x1 = 0.6472	924.05	1198.6
303.15 K, x1 = 0.6979	929.7	1192.1
303.15 K, x1 = 0.7962	940.68	1179.8
303.15 K, x1 = 0.9007	952.41	1167.4
303.15 K, x1 = 0.951	958.07	1161.6
308.15 K, x1 = 0.09736	858.51	1253.3
308.15 K, x1 = 0.2045	870.25	1238.5
308.15 K, x1 = 0.2963	880.29	1225.7
308.15 K, x1 = 0.4046	892.15	1210.4
308.15 K, x1 = 0.4955	902.1	1197.8
308.15 K, x1 = 0.5478	907.85	1190.9
308.15 K, x1 = 0.6058	914.21	1183.1
308.15 K, x1 = 0.657	919.84	1176.5
308.15 K, x1 = 0.6936	923.87	1171.9
308.15 K, x1 = 0.7468	929.74	1165.2
308.15 K, x1 = 0.8022	935.86	1158.4
308.15 K, x1 = 0.9035	947.12	1146.5
